# Values quoted from earlier work as cited in patent US20240382549A1, “USE OF MULBERRY EXTRACT FOR IMPROVING SLEEP QUALITY AND/OR SUBSEQUENT BEHAVIOURAL OUTCOMES” (SOCIETE DES PRODUITS NESTLE S.A., priority 2021, published 2024).
# Details: earlier study; 12.5 mg DNJ in capsule, co-ingestion with maltodextrin
compound,measurement,value
"OC[C@H]1NC[C@H](O)[C@@H](O)[C@@H]1O [DNJ, 1-deoxynojirimycin]",reduction of PPGR,14%
